Assays:
[1] = Selectivity index, ratio of IC50 for human HL7702 cells to IC50 for human Huh-7 cells; format: toxicity; settings: HL7702 cells and Huh-7 cells, read-out: Ratio IC50
Huh-7 [2] = test: Cytotoxicity against human Huh-7 cells assessed as inhibition of cell growth incubated for 48 hrs by MTT assay; format: functional, cell-based; settings: Huh-7, 48 h
MDA-MB-231 = test: Cytotoxicity against human MDA-MB-231 cells assessed as inhibition of cell growth incubated for 48 hrs by MTT assay; format: functional, cell-based; settings: MDA-MB-231, 48 h
A549 [3] = test: Cytotoxicity against cisplatin-resistant human A549 cells assessed as inhibition of cell growth incubated for 48 hrs by MTT assay; format: functional, cell-based; settings: A549, 48 h
Huh-7 [4] = test: Cytotoxicity against human Huh-7 cells assessed as inhibition of cell growth measured after 24 hrs by MTT assay; format: functional, cell-based; settings: Huh-7, 24 h
[5] = Antitumor activity against human HCC cells xenografted in BALB/c mouse assessed as inhibition of tumor weight at 5 mg/kg, iv administered once daily for 7 days; format: functional; settings: 168 h, time 7 day
A549 [6] = test: Cytotoxicity against human A549 cells assessed as inhibition of cell growth incubated for 48 hrs by MTT assay; format: functional, cell-based; settings: A549, 48 h
[7] = Resistance factor, ratio of IC50 for cisplatin-resistant human A549 cells to IC50 for human A549 cells; format: functional
L02 = test: Cytotoxicity against human HL7702 cells assessed as inhibition of cell growth measured after 24 hrs by MTT assay; format: cell-based; settings: L02, 24 h
[8] = Selectivity index, ratio of IC50 for human HL7702 cells to IC50 for human HepG2 cells; format: toxicity; settings: HL7702 cells and HepG2 cells, read-out: Ratio IC50
[9] = Antimetastatic activity against human HCC cells xenografted in BALB/c mouse assessed as reduction lung metastatic nodules at 5 mg/kg, iv administered once every 2 days for 14 days; format: functional; settings: 336 h, time 14 day
MCF7 = test: Cytotoxicity against human MCF7 cells assessed as inhibition of cell growth incubated for 48 hrs by MTT assay; format: functional, cell-based; settings: MCF7, 48 h
HepG2 = test: Cytotoxicity against human HepG2 cells assessed as inhibition of cell growth incubated for 48 hrs by MTT assay; format: functional, cell-based; settings: HepG2, 48 h

Compound	selectivity ratio [1]	IC50 (Huh-7 [2]) [µM]	IC50 (MDA-MB-231) [µM]	IC50 (A549 [3]) [µM]	IC50 (Huh-7 [4]) [µM]	inhibition in vivo at 5 mg/kg [5] [%]	IC50 (A549 [6]) [µM]	Ratio IC50 [7]	IC50 (L02) [µM]	selectivity ratio [8]	inhibition in vivo at 5 mg/kg [9] [%]	IC50 (MCF7) [µM]	IC50 (HepG2) [µM]
CN(C)CCN1C(=O)c2cccc3cc(N)cc(c23)C1=O [AMONAFIDE]	1.36	8.52	15.2	9.56	8.52	46.9	23.5	0.41	11.6	1.23	55.8	10.9	
NCCCCNCCCCN1C(=O)c2cccc3c(NC(=O)CN)ccc(c23)C1=O		22.9	> 30	> 30			> 30					> 30	> 30
